According to ChEMBL document CHEMBL3885861, “Open TG-GATES”:

Organism: Rattus norvegicus
Assay: Open TG-GATES - Regimen: Daily Repeat
Assay type: toxicity, organism-based, Sprague-Dawley
Design: regimen Daily Repeat, gender Male, age 6 weeks
Conditions: in vivo, po, 0 mg/kg, route gavage, dose level Control; for APTT / Bas / Eos / Fbg / Hb / Ht / Lym / MCH / MCHC / MCV / Mono / Neu / PT / Plat / RBC / Ret / WBC: tissue Blood; for KIDNEY_L / KIDNEY_R / KIDNEY_TOTAL: tissue Kidney; for LIVER: tissue Liver; for A/G / ALP / ALT / AST / BUN / CRE / Ca / Cl / DBIL / GLC / IP / K / LDH / Na / PL / RALB / TBIL / TC / TG / TP / gamma-GTP: tissue Plasma

Work on `NC1=NC(=O)C(c2ccccc2)O1` (configuration not stated) [PEMOLINE] yielded a TERMINAL_BW (72 h, time 3 day) of 236.5 g, an APTT (72 h, time 3 day) of 16.2 s and a Bas (72 h, time 3 day) of 0%. For the same compound, the Eos (72 h, time 3 day) was 1%, the Fbg (72 h, time 3 day) was 282.2 mg/dL and the Hb (72 h, time 3 day) was 13.4 g/dL. It also gave a Ht (72 h, time 3 day) of 39.7%, a Lym (72 h, time 3 day) of 77.6% and an MCH (72 h, time 3 day) of 21.7 pg. For the same compound, the MCHC (72 h, time 3 day) was 33.7%, the MCV (72 h, time 3 day) was 64.3 fL and the Mono (72 h, time 3 day) was 3.4%. For the same compound, the Neu (72 h, time 3 day) was 17.6%, the PT (72 h, time 3 day) was 12.8 s and the Plat (72 h, time 3 day) was 105.9 x10_4/uL. It also gave an RBC (72 h, time 3 day) of 617.8 x10_4/ul, a Ret (72 h, time 3 day) of 8% and a WBC (72 h, time 3 day) of 90 x10_2/uL. It also gave a KIDNEY_L (72 h, time 3 day) of 1 g, a KIDNEY_R (72 h, time 3 day) of 1 g and a KIDNEY_TOTAL (72 h, time 3 day) of 2 g. It also gave an LIVER (72 h, time 3 day) of 11 g, an A/G (72 h, time 3 day) of 0.9 and an ALP (72 h, time 3 day) of 1625 IU/L. It also gave an ALT (72 h, time 3 day) of 43 IU/L, an AST (72 h, time 3 day) of 70 IU/L and a BUN (72 h, time 3 day) of 14.8 mg/dL. It also gave a CRE (72 h, time 3 day) of 0.2 mg/dL, a Ca (72 h, time 3 day) of 10.7 mg/dL and a Cl (72 h, time 3 day) of 105.8 meq/L. The DBIL (72 h, time 3 day) was 0.022 mg/dL, the GLC (72 h, time 3 day) was 184 mg/dL and the IP (72 h, time 3 day) was 7.6 mg/dL. It also gave a K (72 h, time 3 day) of 3.9 meq/L, an LDH (72 h, time 3 day) of 58.6 IU/L and a Na (72 h, time 3 day) of 143 meq/L. It also gave a PL (72 h, time 3 day) of 147.6 mg/dL, an RALB (72 h, time 3 day) of 2.6 g/dL and a TBIL (72 h, time 3 day) of 0.026 mg/dL. It also gave a TC (72 h, time 3 day) of 86 mg/dL, a TG (72 h, time 3 day) of 88.6 mg/dL and a TP (72 h, time 3 day) of 5.5 g/dL. The gamma-GTP (72 h, time 3 day) was 1 IU/L, the TERMINAL_BW ([…], time 7 day) was 274.2 g and the TERMINAL_BW ([…], time 14 day) was 326.9 g. The TERMINAL_BW ([…], time 28 day) was 438.2 g, the APTT ([…], time 7 day) was 17.2 s and the Bas ([…], time 7 day) was 0.2%. The Eos ([…], time 7 day) was 1%, the Fbg ([…], time 7 day) was 286.6 mg/dL and the Hb ([…], time 7 day) was 13.8 g/dL. The Ht ([…], time 7 day) was 40%, the Lym ([…], time 7 day) was 75.4% and the MCH ([…], time 7 day) was 21.6 pg. It also gave an MCHC ([…], time 7 day) of 34.4%, an MCV ([…], time 7 day) of 62.7 fL and a Mono ([…], time 7 day) of 3.4%. The Neu ([…], time 7 day) was 19.2%, the PT ([…], time 7 day) was 12.9 s and the Plat ([…], time 7 day) was 126.1 x10_4/uL. It also gave an RBC ([…], time 7 day) of 638.2 x10_4/ul, a Ret ([…], time 7 day) of 6.4% and a WBC ([…], time 7 day) of 103.3 x10_2/uL. For the same compound, the APTT ([…], time 14 day) was 17.8 s, the Bas ([…], time 14 day) was 0% and the Eos ([…], time 14 day) was 0.8%. For the same compound, the Fbg ([…], time 14 day) was 314 mg/dL, the Hb ([…], time 14 day) was 13.9 g/dL and the Ht ([…], time 14 day) was 39.7%. The Lym ([…], time 14 day) was 75.2%, the MCH ([…], time 14 day) was 21.3 pg and the MCHC ([…], time 14 day) was 35%. For the same compound, the MCV ([…], time 14 day) was 60.8 fL, the Mono ([…], time 14 day) was 2.2% and the Neu ([…], time 14 day) was 21.4%. The PT ([…], time 14 day) was 12.8 s, the Plat ([…], time 14 day) was 103.7 x10_4/uL and the RBC ([…], time 14 day) was 653.2 x10_4/ul. It also gave a Ret ([…], time 14 day) of 4.2%, a WBC ([…], time 14 day) of 86.4 x10_2/uL and an APTT ([…], time 28 day) of 17.4 s. It also gave a Bas ([…], time 28 day) of 0.2%, an Eos ([…], time 28 day) of 1% and a Fbg ([…], time 28 day) of 268.4 mg/dL. It also gave a Hb ([…], time 28 day) of 15.1 g/dL, a Ht ([…], time 28 day) of 42.3% and a Lym ([…], time 28 day) of 82.2%. For the same compound, the MCH ([…], time 28 day) was 20.2 pg, the MCHC ([…], time 28 day) was 35.7% and the MCV ([…], time 28 day) was 56.5 fL. For the same compound, the Mono ([…], time 28 day) was 2.6%, the Neu ([…], time 28 day) was 12.6% and the PT ([…], time 28 day) was 12.2 s. The Plat ([…], time 28 day) was 108.5 x10_4/uL, the RBC ([…], time 28 day) was 749.2 x10_4/ul and the Ret ([…], time 28 day) was 2.8%. It also gave a WBC ([…], time 28 day) of 121.3 x10_2/uL, a KIDNEY_L ([…], time 7 day) of 1.1 g and a KIDNEY_R ([…], time 7 day) of 1.1 g. For the same compound, the KIDNEY_TOTAL ([…], time 7 day) was 2.2 g, the KIDNEY_L ([…], time 14 day) was 1.3 g and the KIDNEY_R ([…], time 14 day) was 1.3 g. It also gave a KIDNEY_TOTAL ([…], time 14 day) of 2.6 g, a KIDNEY_L ([…], time 28 day) of 1.4 g and a KIDNEY_R ([…], time 28 day) of 1.4 g. It also gave a KIDNEY_TOTAL ([…], time 28 day) of 2.9 g, an LIVER ([…], time 7 day) of 13.2 g and an LIVER ([…], time 14 day) of 14.4 g. For the same compound, the LIVER ([…], time 28 day) was 18.9 g, the A/G ([…], time 7 day) was 0.9 and the ALP ([…], time 7 day) was 1625.6 IU/L. For the same compound, the ALT ([…], time 7 day) was 41.4 IU/L, the AST ([…], time 7 day) was 68 IU/L and the BUN ([…], time 7 day) was 15.4 mg/dL. It also gave a CRE ([…], time 7 day) of 0.2 mg/dL, a Ca ([…], time 7 day) of 10.6 mg/dL and a Cl ([…], time 7 day) of 104.4 meq/L. The DBIL ([…], time 7 day) was 0.022 mg/dL, the GLC ([…], time 7 day) was 184 mg/dL and the IP ([…], time 7 day) was 7.2 mg/dL. The K ([…], time 7 day) was 3.8 meq/L, the LDH ([…], time 7 day) was 80.2 IU/L and the Na ([…], time 7 day) was 142 meq/L. The PL ([…], time 7 day) was 160.8 mg/dL, the RALB ([…], time 7 day) was 2.7 g/dL and the TBIL ([…], time 7 day) was 0.028 mg/dL. The TC ([…], time 7 day) was 84.2 mg/dL, the TG ([…], time 7 day) was 131.8 mg/dL and the TP ([…], time 7 day) was 5.8 g/dL. It also gave a gamma-GTP ([…], time 7 day) of 1 IU/L, an A/G ([…], time 14 day) of 0.8 and an ALP ([…], time 14 day) of 1289.6 IU/L. It also gave an ALT ([…], time 14 day) of 46.2 IU/L, an AST ([…], time 14 day) of 71.8 IU/L and a BUN ([…], time 14 day) of 15.2 mg/dL. The CRE ([…], time 14 day) was 0.2 mg/dL, the Ca ([…], time 14 day) was 11.2 mg/dL and the Cl ([…], time 14 day) was 105.4 meq/L. The DBIL ([…], time 14 day) was 0.012 mg/dL, the GLC ([…], time 14 day) was 180.2 mg/dL and the IP ([…], time 14 day) was 8.3 mg/dL. The K ([…], time 14 day) was 3.6 meq/L, the LDH ([…], time 14 day) was 66.8 IU/L and the Na ([…], time 14 day) was 144.6 meq/L. For the same compound, the PL ([…], time 14 day) was 144.6 mg/dL, the RALB ([…], time 14 day) was 2.7 g/dL and the TBIL ([…], time 14 day) was 0.018 mg/dL. For the same compound, the TC ([…], time 14 day) was 78.8 mg/dL, the TG ([…], time 14 day) was 88.2 mg/dL and the TP ([…], time 14 day) was 6 g/dL. It also gave a gamma-GTP ([…], time 14 day) of 1 IU/L, an A/G ([…], time 28 day) of 0.8 and an ALP ([…], time 28 day) of 980.4 IU/L. It also gave an ALT ([…], time 28 day) of 41.2 IU/L, an AST ([…], time 28 day) of 61.6 IU/L and a BUN ([…], time 28 day) of 16.6 mg/dL. The CRE ([…], time 28 day) was 0.2 mg/dL, the Ca ([…], time 28 day) was 11.4 mg/dL and the Cl ([…], time 28 day) was 104 meq/L. It also gave a DBIL ([…], time 28 day) of 0.018 mg/dL, a GLC ([…], time 28 day) of 182.2 mg/dL and an IP ([…], time 28 day) of 6.9 mg/dL. It also gave a K ([…], time 28 day) of 3.7 meq/L, an LDH ([…], time 28 day) of 68.8 IU/L and a Na ([…], time 28 day) of 143 meq/L. For the same compound, the PL ([…], time 28 day) was 160.2 mg/dL, the RALB ([…], time 28 day) was 2.8 g/dL and the TBIL ([…], time 28 day) was 0.022 mg/dL. It also gave a TC ([…], time 28 day) of 77.4 mg/dL, a TG ([…], time 28 day) of 215 mg/dL and a TP ([…], time 28 day) of 6.3 g/dL. The gamma-GTP ([…], time 28 day) was 1 IU/L.
